The results in this text go back to patent publication US11624093B2, “Tumor suppressor and oncogene biomarkers predictive of anti-immune checkpoint inhibitor response” (Dana-Farber Cancer Institute, Inc., priority 2014, dated 2023).

For test [1], the system named is Kras mutant mice, total lung and tumor infiltrating immune cells. In words: Immune cell analysis of lungs of Kras mutant mice treated with the arginase inhibitor. The class given is in vivo, mouse. The following applies: 30 mg/kg once daily gavage, 1 week. The text has this: (§1) All EGFR transgenic mice carrying tetracycline inducible human EGFR cDNA were previously generated, crossed with CC10-RTTA mice expressing reverse tetracycline activator from lung Clara cell CC10 promoter, and maintained in mixed background. Double positive progeny were fed with doxycycline diet starting at 5-6 weeks of age for the induction of tumors and maintained on doxycyline throughout the study. EGFR and KrasG12D mice were maintained in mixed (C57Bl/6, FVB, and S129) background and given adeno virus expressing Cre recombinase (5×10^6 titer) intranasally at 5 weeks of age for induction of recombination and tumor formation. All breedings and in vivo experiments were performed with the approval of the DFC1 Animal Care and Use Committee.
(§2) The arginase inhibitor (R)-2-Amino-6-borono-2-(2-(piperidin-1-yl)ethyl)hexanoic acid, also known as compound HY-15775/compound 9, was obtained from MedChem Express and is well known in the art (see, for example, Van Zandt et al. (2013) J. Med. Chem. 56:2568-2580). The compound was administered to mice at 30 mg/kg in phosphate-buffered saline (PBS) via oral gavage once daily.
Total lung cell and tumor infiltrating immune cell characterization was performed as described in Akbay et al. (2013) Cancer Discov. 3:1355-1363.

In test [2] the test system is lung tumors of Kras^G12D mice. In words: MRI lung tumor volume quantification in Kras^G12D mice treated with the arginase inhibitor. The following applies: 30 mg/kg once daily gavage, 1 week. In kind it is in vivo, mouse.
Description: as §1, §2
Animals were anesthetized with 1.5-2% isoflurane (IsoFlo; Abbott) in 100% oxygen. […] Tumor volume quantifications were performed using 3D-Slicer software as described in Weaver et al. (2012) Cancer Res. 72:921-933.

For the compound `N[C@](CCCCB(O)O)(CCN1CCCCC1)C(=O)O` [compound 9/HY-15775, (R)-2-Amino-6-borono-2-(2-(piperidin-1-yl)ethyl)hexanoic acid], in test [1], the “CD8 T cells in the total T cell population” value is “increase”; the “CD11c and CD11b myeloid populations” value is “no change”; the “ratio of CD4 T cells in the total T cell population” value is on record as “decrease”; the “ratio of CD8 to FoxP3 cells (cytotoxic T cells to regulatory T cells)” value is on record as “increase”. The “total T cell counts” value in test [1] is “increase”. Further, in test [2], the “lung tumor volumes (change compared to baseline, MRI)” value is reported as “decreases”.
